From patent US11827628B2, “Compositions and methods for inhibition of the JAK pathway” (Rigel Pharmaceuticals, Inc., priority 2005, dated 2023) come the findings set out here.

Broadly, the IC50 is the concentration needed to halve the response being measured.

Experiment [1] relates to up-regulation of ICAM-1 (CD54) by IFNγ in A549 lung epithelial cells. Kind of experiment: A549 Epithelial Line Stimulated with IFNγ (ICAM-1 surface expression, FACS). Type of experiment: cell-based, human. As to conditions: A549 epithelial line stimulated with IFNγ; ICAM-1 expression by FACS; read-out: IC50, Example 43. The procedure, abridged:
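ICAM-1 (CD54) flow cytometry on live-gated A549 cells, geometric mean versus dose giving EC50. Cells received IFNγ at 75 ng/mL for 24 h after a 1 h compound pre-treatment spanning 30 μM to 14 nM in medium with 5% FBS and 0.3% DMSO.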
On the technique in general: A flow cytometer gives signals particle by particle.

The subject of experiment [2] is Primary human T-cells. Kind of experiment: Primary Human T-Cell Proliferation Assay Stimulated with IL-2 (CellTiter-Glo). Type of experiment: cell-based. The conditions noted are these: primary human T-cell proliferation stimulated with IL-2; read-out: IC50, Example 42. In a few lines: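 IC50 derived from CellTiter-Glo ATP signal after 72 hours of IL-2-driven proliferation at 37° C. Cells: primary human T-cells from blood, stimulated beforehand 3-4 days on anti-CD3/anti-CD28 with IL-2, then rested from IL-2 before compound exposure in duplicate; IL-2-free wells served as unstimulated control.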
In general terms: In ATP-based viability assays light output follows the ATP content of the culture.

As for `Cc1nnc(COc2ccc(Nc3nc(Nc4cccc(S(N)(=O)=O)c4)ncc3F)cc2)o1` [Compound I-277, N2-(3-aminosulfonylphenyl)-5-fluoro-N4-[4-(5-methyl-1,3,4-oxadiazol-2-yl)methyleneoxyphenyl]-2,4-pyrimidinediamine], the IC50 in experiment [1] amounted to 6.91 µM; in experiment [2] it was 91.5 nM.

For the molecule `Cc1nnc(COc2ccc(Nc3nc(Nc4ccc(F)c(S(N)(=O)=O)c4)ncc3F)cc2)o1` [Compound I-278, N2-(3-Aminosulfonyl-4-fluorophenyl)-5-fluoro-N4-[4-(5-methyl-1,3,4-oxadiazol-2-yl)methyleneoxyphenyl]-2,4-pyrimidinediamine], the IC50 in experiment [1] stood at 11 µM; in experiment [2], 412 nM.

`N#CCc1ccc(Nc2nc(Nc3cccc(S(N)(=O)=O)c3)ncc2F)cc1` [III-4, N2-(3-Aminosulfonyl)phenyl-N4-(4-cyanomethyl)phenyl-5-fluoro-2,4-pyrimidinediamine]: the IC50 in experiment [1] was 8.37 µM; in experiment [2], 171 nM.

Consider `Cc1ccc(Nc2ncc(F)c(Nc3ccc(CC#N)cc3)n2)cc1S(N)(=O)=O` [III-7, N2-(3-Aminosulfonyl-4-methyl)phenyl-N4-(4-cyanomethyl)phenyl-5-fluoro-2,4-pyrimidinediamine], for which the IC50 in experiment [1] amounted to 12.3 µM; in experiment [2], 195 nM.

As for `N#CCc1ccc(Nc2nc(Nc3ccc(Cl)c(S(N)(=O)=O)c3)ncc2F)cc1` [III-8, N2-(3-Aminosulfonyl-4-chloro)phenyl-N4-(4-cyanomethyl)phenyl-5-fluoro-2,4-pyrimidinediamine], the results for the IC50 in experiment [1] and in experiment [2] were 14.5 µM and 921 nM, respectively.

Take `COc1cc(Nc2ncc(F)c(Nc3ccc(CC#N)cc3)n2)ccc1S(N)(=O)=O` [III-9, N2-(4-Aminosulfonyl-3-methoxy)phenyl-N4-(4-cyanomethyl)phenyl-5-fluoro-2,4-pyrimidinediamine]: the results for the IC50 in experiment [1] and in experiment [2] were 23.6 µM and 1800 nM, respectively.

For the molecule `Cc1ccc(Nc2ncc(C)c(Nc3ccc(CCC#N)cc3)n2)cc1S(N)(=O)=O` [III-11], the IC50 in experiment [1] came to 2.24 µM; in experiment [2] it was 46 nM.

As for `N#CCCc1ccc(Nc2nc(Nc3cccc(S(N)(=O)=O)c3)ncc2F)cc1` [III-14, N2-(3-aminosulfonylphenyl)-N4-[4-(cyanoethylene)phenyl]-5-fluoro-2,4-pyrimidinediamine], the IC50 in experiment [1] worked out at 3.6 µM; in experiment [2] it was 52.6 nM.

Turning to `Cc1ccc(Nc2ncc(F)c(Nc3ccc(CCC#N)cc3)n2)cc1S(N)(=O)=O` [III-15, N2-(3-Aminosulfonyl-4-methylphenyl)-N4-[4-(cyanoethylene)phenyl]-5-fluoro-2,4-pyrimidinediamine], the figures for the IC50 in experiment [1] and in experiment [2] were 4.66 µM and 107 nM, respectively.

For `N#CCCc1ccc(Nc2nc(Nc3ccc(F)c(S(N)(=O)=O)c3)ncc2F)cc1` [III-16, N2-(3-Aminosulfonyl-4-fluorophenyl)-N4-[4-(cyanoethylene)phenyl]-5-fluoro-2,4-pyrimidinediamine], the IC50 is 7.24 µM in experiment [1] and 342 nM in experiment [2].

With `NS(=O)(=O)c1cccc(Nc2ncc(F)c(Nc3cccc(CNC(=O)C4CC4)c3)n2)c1` [III-39, N2-(3-aminosulfonyl)phenyl-N4-(3-cyclopropylcarbonylaminomethyl)phenyl-5-fluoro-2,4-pyrimidinediamine], the IC50 in experiment [1] came out at 4.15 µM; in experiment [2], 130 nM.

For the molecule “N2-[3-Aminosulfonyl-4-(4-methylpiperazin-1-yl)phenyl]-5-fluoro-N4-[2-fluoro-4-(5-methylisoxazol-3-yl)methyleneoxyphenyl]-2,4-pyrimidinediamine [Compound I-251]”, the IC50 in experiment [1] is 34.9 µM; in experiment [2], 155 nM.
